Source: patent US20150056166A1, “FLAVONE DERIVATIVES AND THEIR USE” (Twincore GmbH, priority 2012, published 2015)

Legend:
[1] = system: J8 (GT2b); test: Luciferase infection assay, chimeric reporter virus J8/2b/R2a in Huh7-Lunet/CD81 cells; assay type: cell-based, HCV; settings: Hepatitis C virus, Huh-7, 72 h
[2] = system: HK6a (GT6a); test: Luciferase infection assay, chimeric reporter virus HK6a/6a/R2a in Huh7-Lunet/CD81 cells; assay type: cell-based, HCV; settings: Hepatitis C virus, Huh-7, 72 h
[3] = system: subgenomic JFH1 luciferase replicon; test: HCV RNA translation and replication, subgenomic luciferase replicon in Huh7-Lunet/CD81 cells; assay type: cell-based; settings: up to a dose of 10 μM, 72 h post transfection
Protocol: (A) Huh7-Lunet/CD81 cells were transfected with the subgenomic luciferase replicon depicted at the top. Drugs were added 4 h post transfection and the level of HCV RNA translation and RNA replication was quantified by luciferase assays 72 h post transfection. Mean values of three independent experiments each with quadruplicate measurements including the standard deviation are shown. (B) Cells were transfected with the Jc1 chimera depicted above and drugs were added 4 h later. HCV virus release in the presence or absence of given compounds was determined by quantification of intracellular and extracellular core protein levels using a core-specific ELISA. Mean values of three independent experiments with single measurements including the error range are given. (C) Huh7-Lunet/CD81 cells were inoculated with Luc-Jc1 reporter viruses prepared in the absence of drugs. […] Infectivity was determined 72 h later by luciferase assays and compared to DMSO-treated controls. […]
To characterize the antiviral effect of BJ486K, the impact of BJ486K on the steps of HCV RNA translation and replication was assessed. To this end, Huh7-Lunet/CD81 cells were transfected with a subgenomic JFH1 luciferase replicon and RNA replication was monitored 72 h later by luciferase assays. […]

[4] = system: Luc-Jc1/E2/G451R reporter viruses; test: Resistance test, Luc-Jc1 versus Luc-Jc1/E2/G451R reporter virus; assay type: cell-based, HCV; settings: Huh7-Lunet/CD81 cells, luciferase 72 h
Protocol: FIG. 4: BJ486K is not affected by viral resistance towards a SR-BI-targeting compound, inhibits HCV of different genotypes and prevents infection of primary human hepatocytes Huh7-Lunet/CD81 cells were inoculated with Luc-Jc1 or Luc-Jc1/E2/G451R reporter viruses in the presence of increasing doses of (A) ITX 5061 or (B) BJ486K. Cells were lysed 72 h later. Luciferase activity was determined and is expressed relative to control infections conducted in the presence of DMSO. Mean values of four independent experiments each with quadruplicate measurements including the standard deviation are shown. (C) Huh7-Lunet/CD81 cells were inoculated with genotype 1a, 1b, 2b, 3a, 4a, 5a and 6a chimeric reporter viruses in the presence of increasing doses of BJ486K. Luciferase activity was determined 72 h later and is expressed relative to infections in the presence of DMSO. Mean values of three independent experiments, each with triplicate measurements, are given. (D) Primary human hepatocytes were inoculated with Con1/C3 in the presence of DMSO or increasing concentrations of BJ486K. The inhibition of HCV infection was assessed by focus-formation assay and is expressed as % inhibition relative to DMSO-treated cells. Mean values of duplicate measurements including the error range are given. […]

[5] = system: J4 (GT1b); test: Luciferase infection assay, chimeric reporter virus J4/1b/R2a in Huh7-Lunet/CD81 cells; assay type: cell-based, HCV; settings: Hepatitis C virus, Huh-7, 72 h
[6] = system: cell culture derived particles from genotype 1a, 1b, 2b, 3a, 4a, 5a and 6a; test: Genotype panel of chimeric reporter viruses, summary statement; assay type: cell-based, HCV; settings: Hepatitis C virus

## COc1ccc(-c2cc(=O)c3c(O)c(O)c(OC)cc3o2)cc1 [BJ486K, 5,6-Dihydroxy-7-methoxy-2-(4-methoxy-phenyl)-chromen-4-one]
[1]
  IC50: 4.14 µM
  IC90: 8.42 µM
[2]
  IC50: 0.75 µM
  IC90: 2.39 µM
[3]
  luciferase activity (HCV RNA translation and replication): not changed
[4]
  antiviral activity against G451R mutant compared with wild type: not changed
[5]
  IC50: 2.35 µM
  IC90: 9.29 µM
[6]
  IC50: < 4.2 µM
